From ChEMBL document CHEMBL1150298, “Sulfadiazine/hydroxypropyl-beta-cyclodextrin host-guest system: Characterization, phase-solubility and molecular modeling” (Bioorg Med Chem, 2008)
In brackets after ≈: the same amount, converted by molar mass.

Assay: Aqueous solubility of compound at pH 7 by spectrophotometry
Settings: aqueous solution

## Nc1ccc(S(=O)(=O)Nc2ncccn2)cc1 [SULFADIAZINE]
  solubility: 40 µg/mL (≈ 160 µM)
